SMILES strings stand for the structures. “And” between values parts separate entries of the source, which are not always exact repeats. Identical values can stand only once. Like-named read-outs stand apart in the source and are kept apart here.

11 molecules from patent US20020055470A1, “Circumvention of human tumor drug resistance” (CITY OF HOPE, priority 1987, published 2002) can be followed below.

Type in all cases: cell-based, human
Test [1] deals with A2780S. In words: Inhibition of cell growth (cells counted on Coulter Counter after six days). Here is the method: The experiment was conducted in triplicate in the manner described with respect to Table I.
A2780 cells were well-plated (35 mm disnes) and 24 hours later the cells were treated with cisplatin for one hour, washed out and then treated with 6 concentrations of from 1 μM to 100 μM increased in equal increments of a nucleoside analog in saline. Cells were then washed and incubated for six days. The cells were counted on a Coulter Counter and the experiment was done in triplicate.
(§1) Table VI includes EC50 data further exemplifying the invention. The data reported by Table VI was obtained by substantially the same procedure as that described with respect to Table III. In Table VI, “(C)” indicates continuous exposure, “(1 h)” and “(2 h)” indicate exposure for 1 hour and 2 hours; “HU” indicates hydroxyurea.

In test [2] the test system is K562-VP16. In words: Inhibition of cell growth, Table VI.
In test [3] the test system is HCF-7 DDP. In words: Inhibition of cell growth, Table VI. Conditions: for EC50: HCF-7 DDP. Here is the method: as §1
The subject of test [4] is K562-araC. Put plainly: Inhibition of cell growth, Table VI. Particulars: for EC50: K562-araC. The procedure:
as §1

In test [5] the test system is K562S. Put plainly: Inhibition of cell growth, Table VI. Here is the method: as §1
Test [6] relates to HCF7S. In words: Inhibition of cell growth, Table VI.
Test [7] has as its system K562-DDP. Put plainly: Inhibition of cell growth, Table VI. Conditions: for EC50: K562-DDP.
The subject of test [8] is A2780DDP. In words: Inhibition of cell growth (cells counted on Coulter Counter after six days). Particulars: for Ratio (degree of resistance or cross-resistance): A2780DDP vs A2780S EC50. The procedure: The experiment was conducted in triplicate in the manner described with respect to Table I. […]
as §1

Test [9] deals with HCT8S. The description is as above. The procedure: as §1
The test system of test [10] is HCT8DDP. Described as above. Here is the method:
as §1

Test [11] concerns A2780DDP. In words: Dual labeled (14C/3H) DNA synthesis and degradation in response to cisplatin; incorporation of labelled nucleoside analogs. Conditions: A2780DDP. The text has this:
A dual labeled (^14C/^3H) experiment was designed to measure simultaneously DNA synthesis and degradation in response to cisplatin.

Setting [12] is: Homo sapiens, A2780S, (C) continuous exposure, read-out: EC50.
Where [13] appears, read: Homo sapiens, (C) continuous exposure.
Where [14] appears, read: Homo sapiens, A2780 DDP, (C) continuous exposure, read-out: EC50.
The mark [15] stands for this setting: Homo sapiens, (C) continuous exposure, read-out: EC50.
Where [16] appears, read: Homo sapiens, HCT8-DDP, (C) continuous exposure, read-out: EC50.
Setting [17] is: A2780S, (C) continuous exposure, read-out: EC50.
Where [18] appears, read: A2780 DDP, (C) continuous exposure, read-out: EC50.
[19] abbreviates: (C) continuous exposure, read-out: EC50.
The mark [20] stands for this setting: HCT8-DDP, (C) continuous exposure, read-out: EC50.
[21] abbreviates: continuous exposure, proliferation during 6 days, mean + SD, read-out: EC50 A2780S.
Setting [22] is: 0 min after cisplatin (20 μM) treatment.
The mark [23] stands for this setting: 45 min after cisplatin (20 μM) treatment.
[24] abbreviates: 90 min after cisplatin (20 μM) treatment.
Where [25] appears, read: 180 min after cisplatin (20 μM) treatment.
Where [26] appears, read: continuous exposure, proliferation during 6 days, mean + SD, read-out: EC50 A2780DDP.

As a reminder, the EC50 is the concentration that produces a half-maximal response. For `Nc1nc2c(ncn2COCCO)c(=O)[nH]1` [Acyclovir], the concentration for a half-maximal effect (EC50) in test [1] (setting [12]), in [2] (setting [13]), in [3] (setting [13]), in [4] (setting [13]), in [5] (setting [13]) and in test [6] (setting [13]) was over 300 µM throughout. Also, the EC50 in test [7] (setting [13]), in test [8] (setting [14]), in [9] (setting [15]) and in test [10] (setting [16]) was over 300 µM in each case.
`Nc1ncnc2c1ncn2[C@@H]1O[C@H](CO)C[C@H]1O` [Cordicpin]: the 50% effective concentration (EC50) in test [1] (setting [17]) was found to be 70 µM; in [2] ((C) continuous exposure), 150 µM; in [4] ((C) continuous exposure), 67 µM; in [5] ((C) continuous exposure) it was 130 µM; in test [6] ((C) continuous exposure) it was 130 µM; in [7] ((C) continuous exposure) it was 160 µM. Further, the concentration giving a half-maximal response (EC50) is 310 µM in test [8] (setting [18]), 110 µM in [9] (setting [19]) and 95 µM in [10] (setting [20]). In addition, in [4] (K562 human leukemia cells), the “fold more sensitive, araC resistant vs sensitive K562 cells” value turned out to be 2 fold.
For the molecule `Nc1nc(O)c2ncn(COC(CO)CO)c2n1` [Ganciclovir, ganciclovir], the EC50 was 110 µM in test [1] (setting [12]); 110 µM in test [1] (Homo sapiens, A2780S, treated 24 h after plating, counted six days later, mean + SD, read-out: Ganciclovir EC50); 250 µM in test [2] (setting [13]); 50 µM in test [3] (setting [13]); 20 µM in test [4] (setting [13]); 10 µM in test [5] (setting [13]). For the same molecule, the EC50 in [6] (setting [13]) worked out at 200 µM; in test [7] (setting [13]) it was 295 µM; in test [8] (setting [14]), 30 µM; in test [8] (Homo sapiens, A2780DDP, treated 24 h after plating, counted six days later, mean + SD, read-out: Ganciclovir EC50), 30 µM; in test [9] (setting [15]), 60 µM; in test [9] (Homo sapiens, treated 24 h after plating, counted six days later, mean + SD, read-out: Ganciclovir EC50), 60 µM. Also, the half-maximal effective concentration (EC50) in [10] (setting [16]) stood at 40 µM; in [10] (Homo sapiens, HCT8DDP, treated 24 h after plating, counted six days later, mean + SD, read-out: Ganciclovir EC50) it was 40 µM. In test [3] (MCF7 human breast cancer cells), the “fold more sensitive, cispt resistant vs sensitive MCF7 cells” value is listed as 4 fold. The “fold more sensitive (lower concentration), cisplatin resistant vs sensitive A2780 cells” value in test [8] (A2780DDP vs A2780S) was 3-4 fold and 3.3 fold. Besides, the “fold more sensitive, cispt resistant vs sensitive HCT8 cells” value in [10] (HCT8 human colon cancer cells) came out at 1.5 fold.
With `NC(=O)NO` [NU, hydroxyurea], the EC50 came out at 75 µM in test [1] (setting [17]); 40 µM in test [2] ((C) continuous exposure); 200 µM in test [3] ((C) continuous exposure); 40 µM in test [4] ((C) continuous exposure); 40 µM in test [5] ((C) continuous exposure); 100 µM in test [6] ((C) continuous exposure). The EC50 is 140 µM in [7] ((C) continuous exposure), 60 µM in [8] (setting [18]), 100 µM in [9] (setting [19]) and 100 µM in [10] (setting [20]).
For the molecule `NC(=O)c1ncn([C@@H]2O[C@H](CO)[C@@H](O)[C@H]2O)n1` [Ribovirin], the EC50 was determined as 27 µM in [1] (setting [17]); 55 µM in test [2] ((C) continuous exposure); 42 µM in [4] ((C) continuous exposure); 62 µM in test [5] ((C) continuous exposure); 100 µM in [6] ((C) continuous exposure); 75 µM in [7] ((C) continuous exposure). In addition, the 50% effective concentration (EC50) in test [8] (setting [18]) came to 45 µM; in test [9] (setting [19]) it was 70 µM; in test [10] (setting [20]) it was 50 µM.
As to `Nc1ncnc2c1ncn2[C@@H]1O[C@H](CO)[C@@H](O)[C@@H]1O` [araA], the EC50 in test [1] (setting [21]) is 16.2 µM; in test [8] (setting [26]) it was 64.7 µM. In addition, the “Incorporation of labelled nucleoside analog into macromolecules” value in test [11] (setting [22]) worked out at 19.01; in test [11] (setting [23]), 24.21; in test [11] (setting [24]), 27.91; in [11] (setting [25]) it was 32.70. Also, the “Ratio (degree of resistance or cross-resistance)” value in test [8] (continuous exposure) was “+4.0”.
Take `Nc1ccn([C@@H]2O[C@H](CO)[C@@H](O)[C@@H]2O)c(=O)n1` [araC]: the EC50 in test [1] (A2780S, (2h) exposure, read-out: EC50) was determined as 0.1 µM; in [1] (setting [21]), 0.1 µM; in [2] ((2h) exposure) it was 8 µM; in [3] ((2h) exposure), 5 µM; in test [4] ((2h) exposure) it was 8 µM; in test [5] ((2h) exposure) it was 0.3 µM. In addition, the EC50 in test [6] ((2h) exposure) stood at 2.5 µM; in [7] ((2h) exposure), 0.3 µM; in test [8] (A2780 DDP, (2h) exposure, read-out: EC50) it was 4.5 µM; in test [8] (setting [26]) it was 4.5 µM; in test [9] ((2h) exposure, read-out: EC50) it was 29 µM; in test [10] (HCT8-DDP, (2h) exposure, read-out: EC50), 79 µM. In test [8] (continuous exposure), the “Ratio (degree of resistance or cross-resistance)” value was “+45.0”.
For the molecule `Nc1ncnc2c1ncn2[C@H]1CC[C@@H](CO)O1` [ddA, 2′3′-dideoxyadenosine], the EC50 in [1] (setting [17]) is 10 µM; in test [2] ((C) continuous exposure), 35 µM; in test [3] ((C) continuous exposure), 30 µM; in [4] ((C) continuous exposure), 36 µM; in [5] ((C) continuous exposure) it was 37.5 µM; in test [6] ((C) continuous exposure), 30 µM. The EC50 worked out at 28 µM in test [7] ((C) continuous exposure), 25 µM in test [8] (setting [18]), 33 µM in test [9] (setting [19]) and 36 µM in [10] (setting [20]).
Regarding `Nc1ccn([C@H]2CC[C@@H](CO)O2)c(=O)n1` [ddC, dideoxycytidine], the EC50 in test [1] (Homo sapiens, A2780S, 144 h, continuous exposure, proliferation during 6 days, mean + SD, read-out: EC50 A2780S) is 1.5 µM; in [1] (setting [12]), 1.5 µM; in test [2] (setting [13]), 100 µM; in test [3] (setting [13]), over 100 µM; in test [4] (setting [13]), over 300 µM; in [5] (setting [13]), 25 µM. Moreover, the half-maximal effective concentration (EC50) was determined as 2.5 µM in [6] (setting [13]); 5 µM in test [7] (setting [13]); 4 µM in [8] (Homo sapiens, 144 h, continuous exposure, proliferation during 6 days, mean + SD, read-out: EC50 A2780DDP); 4 µM in test [8] (setting [14]); 2 µM in [9] (setting [15]); 23 µM in test [10] (setting [16]). The “Incorporation of labelled nucleoside analog into macromolecules” value in test [11] (setting [22]) is recorded as 15.09; in [11] (setting [23]), 36.94; in test [11] (setting [24]), 42.61; in [11] (setting [25]), 45.93. Also, the “factor more sensitive, cispt resistant vs sensitive K562 cells” value in test [7] (K562 human leukemia cells) worked out at 5. In [8] (continuous exposure), the “Ratio (degree of resistance or cross-resistance)” value is “+2.6”.
In the case of `Nc1nc2c(ncn2[C@H]2CC[C@@H](CO)O2)c(=O)[nH]1` [ddG, 2′,3′-dideoxyquanosene], the EC50 in test [1] (setting [17]) stood at 60 µM; in test [2] ((C) continuous exposure), 170 µM; in test [3] ((C) continuous exposure), 180 µM; in [4] ((C) continuous exposure) it was 150 µM; in test [5] ((C) continuous exposure), 160 µM; in test [6] ((C) continuous exposure) it was 210 µM. The half-maximal effective concentration (EC50) is 190 µM in test [7] ((C) continuous exposure), 110 µM in test [8] (setting [18]), 35 µM in [9] (setting [19]) and 45 µM in test [10] (setting [20]).
Turning to `Cc1cn([C@H]2CC[C@@H](CO)O2)c(=O)[nH]c1=O` [ddT, 2′,3′-dideoxythymidine], the concentration giving a half-maximal response (EC50) in test [1] (setting [17]) was 110 µM; in [2] ((C) continuous exposure), 200 µM; in test [3] ((C) continuous exposure), over 500 µM; in [4] ((C) continuous exposure), over 400 µM; in test [5] ((C) continuous exposure), over 400 µM; in test [6] ((C) continuous exposure) it was over 500 µM. The concentration giving a half-maximal response (EC50) was over 400 µM in [7] ((C) continuous exposure), over 750 µM in test [8] (setting [18]), over 150 µM in test [9] (setting [19]) and over 500 µM in test [10] (setting [20]).
